Assay results: US9763445B2, “Safened herbicidal compositions comprising a pyridine carboxylic acid herbicide” (Dow AgroSciences, LLC, priority 2014, dated 2017)

Tests used:
shepherd's purse (CAPBP) = experiment: Postemergence greenhouse trial, % visual injury on shepherd's purse; type: in vivo, Capsella bursa-pastoris
common sorghum (SORVU) = experiment: Postemergence greenhouse trial, % visual injury on common sorghum; type: in vivo, Sorghum vulgare; details: for % visual injury, observed (Ob): SORVU
Method: (§1) Seeds of the desired test plant species were planted in Sun Gro MetroMix® 306 planting mixture, which typically has a pH of 6.0 to 6.8 and an organic matter content of about 30 percent, in plastic pots with a surface area of 103.2 square centimeters (cm^2). When required to ensure good germination and healthy plants, a fungicide treatment and/or other chemical or physical treatment was applied. The plants were grown for 7-36 days (d) in a greenhouse with an approximate 14-hour (h) photoperiod which was maintained at about 23° C. during the day and 22° C. during the night. Nutrients and water were added on a regular basis and supplemental lighting was provided with overhead metal halide 1000-Watt lamps as necessary. The plants were employed for testing when they reached the second or third true leaf stage.
(§2) Weighed amounts of technical material were dissolved in a volume of 97:3 volume per volume (v/v) acetone/dimethyl sulfoxide (DMSO) to stock solutions. […] The concentrated stock solutions were diluted with an aqueous mixture of 1.5% v/v of Agri-dex crop oil concentrate to provide the appropriate application rates. Compound requirements are based upon a 12 milliliter (mL) application volume at a rate of 187 liters per hectare (L/ha). Stocks solutions of the safeners were prepared following the same procedure. Spray solutions of the safeners and experimental compound mixtures were prepared by adding the stock solutions to the appropriate amount of dilution solution to form a 12 mL spray solution in two-way combinations. Formulated compounds were applied to the plant material with an overhead Mandel track sprayer equipped with 8002E nozzles calibrated to deliver 187 L/ha over an application area of 0.503 square meters (m^2) at a spray height of 18 inches (43 centimeters (cm)) above average plant canopy. Control plants were sprayed in the same manner with the solvent blank. All herbicide application (component a) rates are in g ae/ha and all safener (component b) rates are in g ai/ha.
The treated plants and control plants were placed in a greenhouse as described above and watered by sub-irrigation to prevent wash-off of the test compounds. After 20-22 d, the condition of the test plants as compared with that of the control plants was determined visually and scored on a scale of 0 to 100 percent where 0 corresponds to no injury and 100 corresponds to complete kill. Colby's equation was used to determine the herbicidal effects expected from the mixtures. […]
(§3) The safener cloquintocet-acid and a number of agriculturally acceptable esters and salts (-mexyl, -dimethylammonium salt and -triethylammonium salt) were combined in varying ratios with compound 1 and applied to spring wheat (TRZAS), winter wheat (TRZAW), and spring barley (HORVS), and the phytotoxicity of the herbicidal compositions was measured. In addition, the efficacy of the herbicidal composition on pigweed (AMARE, Amaranthus retroflexus), nutsedge (CYPES, Cyperus esculentus), common sunflower (HELAN, Helianthus annuus), and common sorghum (SORVU, Sorghum vulgare).

poinsettia (EPHHL) = experiment: Postemergence greenhouse trial, % visual injury on poinsettia; type: in vivo, Euphorbia heterophylla; details: alone, 35 g/ha
Procedure, shortened: (§4)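 Plants at second or third true leaf stage, greenhouse-grown (14 h photoperiod, ~23/22° C.), sprayed postemergence with compounds alone or with safener cloquintocet-mexyl in 1.5% v/v Agri-dex crop oil at 187 L/ha. Visual injury scored 0–100% versus solvent-blank controls after 20-22 d; expected mixture effects by Colby's equation.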

cornflower (CENCY) [1] = experiment: Postemergence greenhouse trial, % visual injury on cornflower; type: in vivo, Centaurea cyanus or Cyanus segetum; details: alone
Method: as §1, §2
(§5) The treated plants and control plants were placed in a greenhouse as described above and watered by sub-irrigation to prevent wash-off of the test compounds. After 20-22 d, the condition of the test plants as compared with that of the control plants was determined visually and scored on a scale of 0 to 100 percent where 0 corresponds to no injury and 100 corresponds to complete kill. The condition of the test plants was compared with that of the control plants as determined visually and scored on a scale of 0 to 100 percent, where 0 corresponds to no injury and 100 corresponds to complete kill. Colby's equation was used to determine the herbicidal effects expected from the mixtures.
(§6) The safener cloquintocet-mexyl was combined with compound 1, compound 2, compound 3, compound 7, compound 8, compound 9, compound 10, compound 11, compound 12, compound 13, compound 14, compound 15, compound 16, compound 17, compound 18, compound 19, and compound 20, and applied to spring wheat (TRZAS), winter wheat (TRZAW), and spring barley (HORVS) and the phytotoxicity of the herbicidal compositions was measured. […]

cornflower (CENCY) [2] = experiment: as above; type: in vivo, Centaurea cyanus or Cyanus segetum
wild pansy (VIOTR) = experiment: Postemergence greenhouse trial, % visual injury on wild pansy; type: in vivo, Viola tricolor
Procedure, shortened: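 Herbicide rates g ae/ha, safener (cloquintocet-mexyl) rates g ai/ha; spray carrier 1.5% v/v crop oil concentrate, 187 L/ha, 2nd–3rd leaf stage. Rating: visual % injury at 20-22 d.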

velvetleaf (ABUTH) = experiment: Postemergence greenhouse trial, % visual injury on velvetleaf; type: in vivo, Abutilon theophrasti; details: alone, 35 g/ha
Procedure, shortened: as §4

common sunflower (HELAN) = experiment: Postemergence greenhouse trial, % visual injury on common sunflower; type: in vivo, Helianthus annuus
Method: as §1, §2, §5, §3

winter wheat (TRZAW) = experiment: Postemergence greenhouse trial, % visual injury on winter wheat; type: in vivo, Triticum aestivum
Method: as §1, §2, §5, §6

CCCCCC(C)OC(=O)COc1ccc(Cl)c2cccnc12 (stereo not shown) [CQC-m, cloquintocet-mexyl, reference compound]
0%: % visual injury, Ob (shepherd's purse (CAPBP); compound 0, CQC-m 4.375 g/ha) | % visual injury, Ob (shepherd's purse (CAPBP); compound 0, CQC-m 8.75 g/ha) | % visual injury, Ob (shepherd's purse (CAPBP); compound 0, CQC-m 17.5 g/ha) | % visual injury, Ob (shepherd's purse (CAPBP); compound 0, CQC-m 35 g/ha) | % visual injury, Ob (shepherd's purse (CAPBP); compound 0, CQC-m 70 g/ha) | % visual injury, Ob (shepherd's purse (CAPBP); compound 0 g/ha, CQC-m 4.375 g/ha) | % visual injury, Ob (shepherd's purse (CAPBP); compound 0 g/ha, CQC-m 8.75 g/ha) | % visual injury, Ob (shepherd's purse (CAPBP); compound 0 g/ha, CQC-m 17.5 g/ha) | % visual injury, Ob (shepherd's purse (CAPBP); compound 0 g/ha, CQC-m 35 g/ha) | % visual injury, Ob (shepherd's purse (CAPBP); compound 0 g/ha, CQC-m 70 g/ha) | % visual injury, observed (Ob) (common sorghum (SORVU); safener alone 2.5 g/ha) | % visual injury, observed (Ob) (common sorghum (SORVU); safener alone 5 g/ha) | % visual injury, observed (Ob) (common sorghum (SORVU); safener alone 10 g/ha) | % visual injury, observed (Ob) (common sorghum (SORVU); safener alone 20 g/ha) | % visual injury, Ob (common sorghum (SORVU); alone, 35 g/ha) | % visual injury, Ob (poinsettia (EPHHL)) | % visual injury, Ob (cornflower (CENCY) [1]; 4.375 g/ha) | % visual injury, Ob (cornflower (CENCY) [1]; 8.75 g/ha) | % visual injury, Ob (cornflower (CENCY) [1]; 35 g/ha) | % visual injury, Ob (cornflower (CENCY) [2]; CENCY, compound 0, CQC-m 4.375 g/ha) | % visual injury, Ob (cornflower (CENCY) [2]; CENCY, compound 0, CQC-m 8.75 g/ha) | % visual injury, Ob (cornflower (CENCY) [2]; CENCY, compound 0, CQC-m 17.5 g/ha) | % visual injury, Ob (cornflower (CENCY) [2]; CENCY, compound 0, CQC-m 35 g/ha) | % visual injury, Ob (cornflower (CENCY) [2]; CENCY, compound 0, CQC-m 70 g/ha) | % visual injury, Ob (cornflower (CENCY) [2]; CENCY, compound 0 g/ha, CQC-m 4.375 g/ha) | % visual injury, Ob (cornflower (CENCY) [2]; CENCY, compound 0 g/ha, CQC-m 8.75 g/ha) | % visual injury, Ob (cornflower (CENCY) [2]; CENCY, compound 0 g/ha, CQC-m 17.5 g/ha) | % visual injury, Ob (cornflower (CENCY) [2]; CENCY, compound 0 g/ha, CQC-m 35 g/ha) | % visual injury, Ob (cornflower (CENCY) [2]; CENCY, compound 0 g/ha, CQC-m 70 g/ha) | % visual injury, Ob (cornflower (CENCY) [2]; alone, 17.5 g/ha) | % visual injury, Ob (cornflower (CENCY) [2]; alone, 70 g/ha) | % visual injury, Ob (wild pansy (VIOTR); VIOTR, 4.375 g/ha, applied alone) | % visual injury, Ob (wild pansy (VIOTR); VIOTR, 8.75 g/ha, applied alone) | % visual injury, Ob (wild pansy (VIOTR); VIOTR, 17.5 g/ha, applied alone) | % visual injury, Ob (wild pansy (VIOTR); VIOTR, 35 g/ha, applied alone) | % visual injury, Ob (wild pansy (VIOTR); VIOTR, 70 g/ha, applied alone) | % visual injury, Ob (wild pansy (VIOTR); VIOTR, compound 0 g/ha, CQC-m 4.375 g/ha) | % visual injury, Ob (wild pansy (VIOTR); VIOTR, compound 0 g/ha, CQC-m 8.75 g/ha) | % visual injury, Ob (wild pansy (VIOTR); VIOTR, compound 0 g/ha, CQC-m 17.5 g/ha) | % visual injury, Ob (wild pansy (VIOTR); VIOTR, compound 0 g/ha, CQC-m 35 g/ha) | % visual injury, Ob (wild pansy (VIOTR); VIOTR, compound 0 g/ha, CQC-m 70 g/ha) | % visual injury, Ob (wild pansy (VIOTR); alone, 35 g/ha) | % visual injury, Ob (velvetleaf (ABUTH)) | % visual injury, observed (Ob) (common sunflower (HELAN); safener alone 2.5 g/ha) | % visual injury, observed (Ob) (common sunflower (HELAN); safener alone 5 g/ha) | % visual injury, observed (Ob) (common sunflower (HELAN); safener alone 10 g/ha) | % visual injury, observed (Ob) (common sunflower (HELAN); safener alone 20 g/ha) | % visual injury, Ob (winter wheat (TRZAW); TRZAW, compound 0 g/ha, CQC-m 35 g/ha) | % visual injury, Ob (winter wheat (TRZAW); TRZAW, compound 0 g/ha, CQC-m 70 g/ha) | % visual injury, observed (Ob) (winter wheat (TRZAW); TRZAW, safener alone 2.5 g/ha) | % visual injury, observed (Ob) (winter wheat (TRZAW); TRZAW, safener alone 5 g/ha) | % visual injury, observed (Ob) (winter wheat (TRZAW); TRZAW, safener alone 10 g/ha) | % visual injury, observed (Ob) (winter wheat (TRZAW); TRZAW, safener alone 20 g/ha) | % visual injury, Ob (winter wheat (TRZAW); alone, 35 g/ha) | % visual injury, Ob (winter wheat (TRZAW); alone, 70 g/ha)
